Source: EP2487171A1, “Dihydrobenzopyran, thiochroman, tetrahydroquinoleine and tetrahydronaphthalene derivatives and their use in anti-cancer therapy” (Université de Liège, priority 2011, dated 2012)

Experiments:
U373 = experiment: MTT colorimetric assay, overall cell growth; assay type: cell-based; conditions: Homo sapiens, U373 MG; U373 cells, 72 hours of incubation; read-out: IC50 (µM) In Vitro Growth Inhibitory Concentrations (MTT Colorimetric Assay) U373
Description: (§1) The compounds and particularly dihydrobenzopyran, thiochroman, tetrahydroquinoleine and tetrahydronaphthalene derivatives of the invention were evaluated for their anti-proliferative effect (by means of the colorimetric MTT assay), in the following human glioblastoma cell-lines U373, T98G and Hs683 and in the mouse glioma cell line GL261. Normal brain cells (primocultures from newborn mice) were also used in order to determine the bioselectivity (B^N/C) of the compounds of interest, i.e. the ratio between the concentrations that inhibits 50% of the growth of brain cancer (C) cells (glioma cells) and the concentration that inhibits 50% of the growth of normal (N) brain cells (primocultures of astrocytes). The ideal situation to be reached is a bioselectivity of B^N/C > 10.
(§2) MTT tests were performed in order to rapidly, i.e. within 5 days, measure the effect of compounds of this invention on the overall cell growth. The test measured the number of metabolically active living cells that were able to transform the yellow product 3-(4,5-dimethylthiazol-2-yl)-2,5-diphenyl tetrazolium bromide (herein referred as MTT) into the blue product formazan dye by mitochondrial reduction. The amount of formazan obtained at the end of the experiment, measured by means of a spectrophotometer, is directly proportional to the number of living cells. Optical density determination thus enabled a quantitative measurement of the effect of the investigated compounds as compared to the control condition (untreated cells) and/or to other reference compounds.
(§3) Three human cancer cell lines were used in the following MTT tests.
(§4) To perform the assay, cells were allowed to grow in 96-well micro-wells with a flat bottom with an amount of 100 µl of cell suspension per well with 1,000 to 8,000 cells/well depending on the cell type used. Each cell line was seeded in its appropriate culture medium.
(§5) The detailed experimental procedure was the following: after a 24-hour period of incubation at 37°C, the culture medium was replaced by 100 µl of fresh medium in which the tested compound was previously dissolved, at the following molar concentrations: 10^-8 M, 5.10^-8 M, 10^-7 M, 5.10^-7 M, 10^-6 M, 5.10^-6 M, 10^-5 M, 5.10^-5 M and 10^-4 M. Each experiment was performed in sextuplicate (6 times).
(§6) After 72 hours of incubation at 37°C with (experimental conditions) or without (control condition) the compound to be tested, the medium was replaced by 100 µl MTT dissolved in RPMI (1640 without phenol red) at a concentration of 0.5 mg/ml. The micro-wells were subsequently incubated during 3 hours and a half at 37°C and centrifuged at 1300 rpm during 10 minutes. MTT was removed and formazan crystals formed were dissolved in 100 µl DMSO. The micro-wells were shaken for 5 minutes and read on a spectrophotometer at wavelengths of 570 nm (maximal formazan absorbance).
(§7) For each experimental condition, the mean optical density was calculated, allowing the determination of the percentage of remaining living cells in comparison to the control.

Hs683 = experiment: MTT colorimetric assay, overall cell growth; assay type: cell-based; conditions: Homo sapiens, Hs 683; Hs683 cells, 72 hours of incubation; read-out: IC50 (µM) In Vitro Growth Inhibitory Concentrations (MTT Colorimetric Assay) Hs683
Description: as §1, §2, §3, §4, §5, §6, §7

[1] = tested on: human U373 glioma cell line; experiment: Quantitative videomicroscopy (computer-assisted phase-contrast microscopy); assay type: cell-based; conditions: U373 cells treated at the IC50 concentration from MTT, filmed for 72h; cytostatic versus cytotoxic effects
Text: In addition, the inventors could establish that the compounds of the invention act through a non-apoptosis-related mechanism thanks to a unique experimental approach used by the inventors, i.e. computer-assisted phase-contrast microscopy (quantitative videomicroscopy), making them good candidates as anti-cancer drugs for treating apoptosis-resistant tumor or cancer cells and for overcoming problems linked to the known anti-cancer drugs.
As the MTT test is based on the mitochondria functions, we also investigated the effects of the compounds according to the invention on cell proliferation, migration and morphology by means of a cellular imaging approach (Debeir et al., Cytometry 60:29-40, 2004; Debeir et al., IEEE Trans Med Imaging 24:697-711, 2005) in the human U373 glioma cell line, which is apoptosis-resistant but autophagy-sensitive (Lefranc F et al., Neurosurgery 2008).
Cellular imaging relied on the use of computer-assisted phase-contrast microscopy making possible to film the behaviour of living cells in culture dishes for several days.
Cells were seeded in a 25-cm^2 flask at a low density, treated or not with the compounds of the invention (at their IC50 concentration determined previously by MTT tests) and filmed thereafter for a period of 72h. The experiment was conducted in triplicate.
The behaviour of the cells, in terms of morphology, growth and death were thus investigated. The effect on the overall growth was measured by counting the number of cells on the first (0h) and the last image (72h) of each film. The global growth ratio (GGR) was then deduced by dividing the number of cells on the last image by the number of cells on the first image. The ratio GGRtreated cells / GGRcontrol cells, was further calculated thereby obtaining a value that describes the effect of compounds of the present invention on the overall cell growth.
The methodology is fully described and validated in Debeir et al., 2008, Exp Cell Res 314:2985-2998 and Mathieu et al., 2009, J Cell Mol Med, Feb 20, 2009.
Thanks to the quantitative videomicroscopy (QVM) approach, we classified the compounds into 4 distinctive classes on the basis of their cytostatic versus cytotoxic effects (Table 3). • Class I: actually cytostatic for 3 days (< 10 % of cell death at the 3rd day) • Class II: cytostatic but becomes cytotoxic with < 10% cell death on the 2nd day and > 20% of cell death on the 3rd day • Class III: cytostatic but rapidly becomes cytotoxic with < 10% cell death on the 1st day, > 20% of cell death on the 2nd day and > 50% of cell death on the 3rd day • Class IV: cytotoxic (> 50% of cell death on the first day)
In Fig. 1a, compounds of example 14 (5 µM), example 19 (20 µM) and example 23 (5 µM) belong to QVM Class I because they display cytostatic effects on human U373 GBM cells during the whole duration of the experiment. Cytostatic effects mean that < 10 % of cell death was recorded at the end of the experiment, i.e. at the end of the 3rd day. QVM analyses enable the global growth ratio (GGR) to be calculated in each experiment. The GGR index is obtained by dividing the number of cells in the last image by the number of cells in the first image of the experiment, knowing that 1080 images are taken during the 72 h-period of observation. The ratio GGR^treated cells / GGR^control cells was further calculated thereby obtaining a value that describes the effect of compounds on the overall cell growth. Thus, a GGR index of 0.2 means that they remain only 20% of treated cells compare to the control cells at the end of the experiment.

T98G = experiment: MTT colorimetric assay, overall cell growth; conditions: Homo sapiens, 72 h, read-out: IC50 (µM) In Vitro Growth Inhibitory Concentrations (MTT Colorimetric Assay) T98G;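 further: growth inhibition of the human glioblastoma line measured by MTT reduction to formazan, optical density read on a spectrophotometer at 570 nm, untreated cells as control, nine concentrations from 10 nM to 100 µM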
Description: The compounds and particularly dihydrobenzopyran, thiochroman, tetrahydroquinoleine and tetrahydronaphthalene derivatives of the invention were evaluated for their anti-proliferative effect (by means of the colorimetric MTT assay), in the following human glioblastoma cell-lines U373, T98G and Hs683 and in the mouse glioma cell line GL261. Normal brain cells (primocultures from newborn mice) were also used in order to determine the bioselectivity (B^N/C) of the compounds of interest, i.e. the ratio between the concentrations that inhibits 50% of the growth of brain cancer (C) cells (glioma cells) and the concentration that inhibits 50% of the growth of normal (N) brain cells (primocultures of astrocytes).
as §2, §3, §4, §5
The micro-wells were subsequently incubated during 3 hours and a half at 37°C and centrifuged at 1300 rpm during 10 minutes. MTT was removed and formazan crystals formed were dissolved in 100 µl DMSO. The micro-wells were shaken for 5 minutes and read on a spectrophotometer at wavelengths of 570 nm (maximal formazan absorbance).
as §7

Row | SMILES | IC50 (U373) [µM] | IC50 (Hs683) [µM] | QVM Class [1] | IC50 (T98G) [µM]
1 | CC(C)(C)OC(=O)Nc1ccc2c(c1)C(NC(=O)Nc1cccc(F)c1)CC(C)(C)O2 (racemic) [Example 19, R/S-N-3-fluorophenyl-N'-(6-tert-butoxycarbonylamino-3,4-dihydro-2,2-dimethyl-2H-1-benzopyran-4-yl)urea] | 20 | 19 | I (Class I: actually cytostatic for 3 days (< 10 % of cell death at the 3rd day)) | 26
2 | CC(C)(C)OC(=O)Nc1ccc2c(c1)C(NC(=O)Nc1ccccc1Cl)CC(C)(C)O2 (racemic) [Example 35, R/S-N-2-chlorophenyl-N'-(6-tert-butoxycarbonylamino-3,4-dihydro-2,2-dimethyl-2H-1-benzopyran-4-yl)urea] | 59 | 34 | – | 100
3 | CC(C)(C)OC(=O)Nc1ccc2c(c1)C(NC(=O)Nc1ccc(Cl)cc1C(F)(F)F)CC(C)(C)O2 (racemic) [Example 37, R/S-N-4-chloro-2-trifluoromethylphenyl-N'-(6-tert-butoxycarbonylamino-3,4-dihydro-2,2-dimethyl-2H-1-benzopyran-4-yl)urea] | 34 | 30 | II (Class II: cytostatic but becomes cytotoxic with < 10% cell death on the 2nd day and > 20% of cell death on the 3rd day) | 38
4 | CC(C)(C)OC(=O)Nc1ccc2c(c1)C(NC(=O)Nc1ccc([N+](=O)[O-])cc1)CC(C)(C)O2 (racemic) [Example 22, R/S-N-4-nitrophenyl-N'-(6-tert-butoxycarbonylamino-3,4-dihydro-2,2-dimethyl-2H-1-benzopyran-4-yl)urea] | 24 | 20 | IV (Class IV: cytotoxic (> 50% of cell death on the first day)) | 26
5 | CC(C)(C)OC(=O)Nc1ccc2c(c1)C(NC(=O)Nc1ccc(C(F)(F)F)cc1Cl)CC(C)(C)O2 (racemic) [Example 30, R/S-N-2-chloro-4-trifluoromethylphenyl-N'-(6-tert-butoxycarbonylamino-3,4-dihydro-2,2-dimethyl-2H-1-benzopyran-4-yl)urea] | 26 | 25 | II (Class II: cytostatic but becomes cytotoxic with < 10% cell death on the 2nd day and > 20% of cell death on the 3rd day) | 34
6 | CC(C)(C)OC(=O)Nc1ccc2c(c1)C(NC(=O)Nc1cccc(C#N)c1)CCO2 (racemic) [Example 5, R/S-N-3-cyanophenyl-N'-(6-tert-butoxycarbonylamino-3,4-dihydro-2H-1-benzopyran-4-yl)urea] | 29 | 25 | – | 38
7 | CC(C)(C)OC(=O)Nc1ccc2c(c1)C(NC(=O)Nc1cccc(Cl)c1)CCO2 (racemic) [Example 2, R/S-N-3-chlorophenyl-N'-(6-tert-butoxycarbonylamino-3,4-dihydro-2H-1-benzopyran-4-yl)urea] | 19 | 28 | – | 29
8 | CC(C)(C)OC(=O)Nc1ccc2c(c1)C(NC(=O)Nc1ccc(F)cc1)CC(C)(C)O2 (racemic) [Example 18, R/S-N-4-fluorophenyl-N'-(6-tert-butoxycarbonylamino-3,4-dihydro-2,2-dimethyl-2H-1-benzopyran-4-yl)urea] | 30 | 35 | I (Class I: actually cytostatic for 3 days (< 10 % of cell death at the 3rd day)) | 33
9 | CC(C)(C)OC(=O)Nc1ccc2c(c1)C(NC(=O)Nc1ccc(Cl)c(C(F)(F)F)c1)CC(C)(C)O2 (racemic) [Example 33, R/S-N-4-chloro-3-trifluoromethylphenyl-N'-(6-tert-butoxycarbonylamino-3,4-dihydro-2,2-dimethyl-2H-1-benzopyran-4-yl)urea] | 21 | 22 | III (Class III: cytostatic but rapidly becomes cytotoxic with < 10% cell death on the 1st day, > 20% of cell death on the 2nd day and > 50% of cell death on the 3rd day) | 23
10 | CC(C)(C)OC(=O)Nc1ccc2c(c1)C(NC(=O)Nc1cc(C(F)(F)F)ccc1Cl)CC(C)(C)O2 (racemic) [Example 31, R/S-N-2-chloro-5-trifluoromethylphenyl-N'-(6-tert-butoxycarbonylamino-3,4-dihydro-2,2-dimethyl-2H-1-benzopyran-4-yl)urea] | 15 | 12 | II (Class II: cytostatic but becomes cytotoxic with < 10% cell death on the 2nd day and > 20% of cell death on the 3rd day) | 38
11 | CC(C)(C)OC(=O)Nc1ccc2c(c1)C(NC(=O)Nc1ccccc1[N+](=O)[O-])CC(C)(C)O2 (racemic) [Example 27, R/S-N-2-nitrophenyl-N'-(6-tert-butoxycarbonylamino-3,4-dihydro-2,2-dimethyl-2H-1-benzopyran-4-yl)urea] | 12 | 13 | I (Class I: actually cytostatic for 3 days (< 10 % of cell death at the 3rd day)) | 22
12 | CC(C)(C)OC(=O)Nc1ccc2c(c1)C(NC(=O)Nc1ccc(Br)cc1)CC(C)(C)O2 (racemic) [Example 34, R/S-N-4-bromophenyl-N'-(6-tert-butoxycarbonylamino-3,4-dihydro-2,2-dimethyl-2H-1-benzopyran-4-yl)urea] | 22 | 21 | III (Class III: cytostatic but rapidly becomes cytotoxic with < 10% cell death on the 1st day, > 20% of cell death on the 2nd day and > 50% of cell death on the 3rd day) | 21
13 | CC(C)(C)OC(=O)Nc1ccc2c(c1)C(NC(=O)Nc1cccc(Br)c1)CC(C)(C)O2 (racemic) [Example 20, R/S-N-3-bromophenyl-N'-(6-tert-butoxycarbonylamino-3,4-dihydro-2,2-dimethyl-2H-1-benzopyran-4-yl)urea] | 22 | 18 | III (Class III: cytostatic but rapidly becomes cytotoxic with < 10% cell death on the 1st day, > 20% of cell death on the 2nd day and > 50% of cell death on the 3rd day) | 26
14 | CC(C)(C)OC(=O)Nc1ccc2c(c1)C(NC(=O)Nc1ccccc1C#N)CCO2 (racemic) [Example 4, R/S-N-2-cyanophenyl-N'-(6-tert-butoxycarbonylamino-3,4-dihydro-2H-1-benzopyran-4-yl)urea] | 53 | 44 | – | 65
15 | CC(C)(C)OC(=O)Nc1ccc2c(c1)C(NC(=O)Nc1ccc(C#N)cc1)CCO2 (racemic) [Example 6, R/S-N-4-cyanophenyl-N'-(6-tert-butoxycarbonylamino-3,4-dihydro-2H-1-benzopyran-4-yl)urea] | 42 | 30 | – | 39
16 | CC(C)(C)OC(=O)Nc1ccc2c(c1)C(NC(=O)Nc1ccc(Cl)cc1)CCO2 (racemic) [Example 3, R/S-N-4-chlorophenyl-N'-(6-tert-butoxycarbonylamino-3,4-dihydro-2H-1-benzopyran-4-yl)urea] | 11 | > 100 | – | > 100
17 | CC(C)(C)OC(=O)Nc1ccc2c(c1)C(NC(=O)Nc1ccccc1Cl)CCO2 (racemic) [Example 1, R/S-N-2-chlorophenyl-N'-(6-tert-butoxycarbonylamino-3,4-dihydro-2H-1-benzopyran-4-yl)urea] | 26 | 23 | – | 24
